1 compound from patent publication US20140303092A1 (CHIMERIX, INC., priority 2011, published 2014) can be followed below.

A short description of data set [1]: Study HDP-CDV-201: GVHD reported as AE, weekly stage and grade, logistic regression versus dose. Details: species or system human (HSCT recipients). The following applies: human, in vivo. As for the experimental part: Because of the increased frequency of reports of acute GVHD in the BIW Cohorts of Study HDP-CDV-201, an in-depth analysis of reported GVHD was conducted. This analysis includes data from the following sources: Adverse events as reported in the eCRF, including GVHD and GI events; Weekly GVHD assessments (by stage, organ, and grade) as reported by the investigators on the GVHD module of the eCRF. […]
For all subjects, the sites were instructed to record the presence or absence of GVHD, and stage and grade of GVHD, if present, at each visit on a separate eCRF page. […] Stage and grade of GVHD were evaluated per the NIH consensus guidelines (Przepiorka D, et al. Consensus conference on acute GVHD grading. Bone Marrow Transplant. 1995; 15(6): 825-828), which focus on the intensity of symptoms or laboratory abnormalities associated with GVHD (for example, the staging of GVHD of the intestine is based on the volume of diarrhea). […]

On the set-up of data set [2]: species or system human. The note with it: in vivo. From the text: Plasma samples were collected during the study to assess weekly trough concentrations of HDP-CDV and CDV. […] There was no evidence for increasing weekly trough CDV plasma concentrations; therefore, plasma concentrations are not presented in this document.
Data set [3] in a line: Study HDP-CDV-350: safety, adverse events and disposition. The class given is in vivo, human (allogeneic HCT recipients). Here is the method:
Subjects underwent extensive safety monitoring, including routine safety laboratory assessments, physical examination, and vital sign measurements at regular intervals. In addition, subjects were monitored for viral DNA burden in plasma (DNAemia) and other affected compartments (e.g., urine, stool, CSF, etc.). Assessments were performed weekly for the first month, every 1 or 2 weeks for the next 2 months, and monthly thereafter for as long as treatment was continued. Subjects were monitored for adverse events (AEs) and for selected concomitant medication throughout the entire study, including the 1 month posttreatment follow-up period.
Given that subjects had to have a serious or life-threatening disease and/or to have failed other available treatment options in order to qualify for this study, there was an expected high frequency of AEs in the study population overall. With the exception of diarrhea, with or without associated GI signs and symptoms, the vast majority of AEs were attributed to the underlying conditions of the subjects and not to HDP-CDV administration.

Another data set has as its system AdV. Description: In vitro antiviral activity in cell culture, AdV. The note with it: unidentified adenovirus. Format: cell-based.
For data set [4] the following is noted: in vivo.
A short description of data set [5]: Study HDP-CDV-201 post hoc analysis of preemptive therapy with anti-CMV STOC during follow-up. Format: in vivo, human (HCT recipients). Here is the method:
Subjects who developed CMV infection or disease at any time during the up to 11-week treatment period (through approximately 100 days posttransplant) were discontinued from study treatment (i.e., HDP-CDV or placebo) and followed for a period of 4 weeks, while subjects who completed the treatment period were followed for a period of 8 weeks. After study treatment was discontinued, subjects were treated with PrT for CMV infection/disease.
Among the study population (N=230 subjects), subjects who received STOC for PrT, defined as receiving at least one of GCV, vGCV, FOS or IV CDV for the explicit treatment of CMV infection/disease during the follow-up (“FU”) period, were identified. […]
Baseline measures for clinical laboratory values were defined as the last value on or before the last day of study treatment. The maximal decrease in ANC was determined using the minimum value reported after the last day of study treatment. The maximal increase in serum creatinine was determined using the maximum value reported after the last day of study treatment. […]
AEs were counted if the onset day was after the last day of study treatment. […] P-values were determined using Fisher's exact test for binary data and an independent t-test (pooled) for continuous data.

The conditions of data set [6]: cynomolgus monkey, in vivo.
Where [7] appears, read: 16 subjects, 100 mg BIW adults or 2 mg/kg BIW pediatrics.

Marks after values point to notes of the source that are not given here.

In the case of `CCCCCCCCCCCCCCCCOCCCOP(=O)(O)COC(CO)Cn1ccc(N)nc1=O` (stereo not drawn) [HDP-CDV], in data set [1], the “overall frequency of GVHD” value fell in the range of 44 to 59%. Moreover, the “weekly trough HDP-CDV concentrations” value in data set [2] is reported as “near or below the lower limit of quantification”. For the same compound, in data set [3] (setting [7]), the “Reason for Premature Study Discontinuation: Death” value is reported as 7 (44%) and the “Reasons for Premature HDP-CDV Treatment Discontinuation: Death” value was 4 (25%). The “Reasons for Premature HDP-CDV Treatment Discontinuation: Other” value in data set [3] (16 subjects, both completed the maximum 6 months treatment without resolution of CMV infection) is 2 (13%)^i. In data set [3] (human, in vivo), the “Treatment-related Adverse Events: Colitis” value is given as 1 (6%) No. of Subjects (%), the “Treatment-related Adverse Events: Decreased appetite” value is on record as 1 (6%) No. of Subjects (%), the “Treatment-related Adverse Events: Diarrhea” value was 12 (75%) No. of Subjects (%) and the “Treatment-related Adverse Events: Flatulence” value was 1 (6%) No. of Subjects (%). Further, in data set [3] (human, in vivo), the “Treatment-related Adverse Events: Liver function tests abnormal” value is listed as 3 (19%) No. of Subjects (%), the “Treatment-related Adverse Events: Nausea” value is 2 (13%) No. of Subjects (%) and the “Treatment-related Adverse Events: Neutropenia” value was 1 (6%) No. of Subjects (%). In addition, in data set [3] (in vivo), the tolerability entry is recorded as “generally well-tolerated”. Besides, the EC50 with AdV is 20 nM. In addition, the “Minor increases in ALT” value in data set [4] is 2-5 fold. For the same compound, the rate of preemption in data set [5] (100 mg twice-weekly (11/50)) was 22.0%. In addition, the “incidence of preemptive therapy with anti-CMV STOC” value in data set [5] (four cohorts ≧100 mg HDP-CDV per week (38 of 146)) stood at 26.0%. Moreover, the ALT change result in data set [6] is on record as “dose-related increases in ALT which were quickly reversible after cessation of dosing”.
